Patent US7704995B2 (Exelixis, Inc., priority 2003, dated 2010)
pIC50: −log10 of the molar value.

Target: T1, Chk1 (Homo sapiens, UniProt O14757)
T1 construct: purchased Upstate Biotechnology
T1 sequence (O14757 1-476): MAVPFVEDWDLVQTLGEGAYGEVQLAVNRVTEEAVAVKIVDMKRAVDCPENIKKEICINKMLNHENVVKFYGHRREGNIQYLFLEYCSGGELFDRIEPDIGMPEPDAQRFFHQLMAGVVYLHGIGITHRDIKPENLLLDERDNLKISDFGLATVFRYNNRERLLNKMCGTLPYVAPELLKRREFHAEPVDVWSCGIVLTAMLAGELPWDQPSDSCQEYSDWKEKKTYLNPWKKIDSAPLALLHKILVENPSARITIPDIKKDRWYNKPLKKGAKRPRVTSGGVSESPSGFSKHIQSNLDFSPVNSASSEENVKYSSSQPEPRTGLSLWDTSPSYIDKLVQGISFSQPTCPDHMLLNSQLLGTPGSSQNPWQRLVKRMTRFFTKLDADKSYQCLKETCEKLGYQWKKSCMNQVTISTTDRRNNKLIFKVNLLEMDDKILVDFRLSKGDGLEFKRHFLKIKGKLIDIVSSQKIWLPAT
Test: Chk1 kinase assay: incorporation of γ-33P ATP into immobilized myelin basic protein
Assay type: biochemical
Settings: Table 11; Chk1 only; read-out: Chk1 IC50
Summary of the method: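 Plates coated with MBP, then kinase reactions in Hepes pH 7.6 buffer with 10 mM MgCl2 and 1% DMSO were started by adding unlabeled plus γ-33P ATP (10 μM for Chk1 at 10 nM enzyme; 30 μM for Chk2 at 20 nM enzyme). After 1 h at room temperature, plates were washed and counted.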

SMILES	pIC50
CNC(=O)c1nc(-c2cccc(CNC3CCc4ccc(Cl)cc43)c2)cnc1N (stereo not drawn) [Example 485, 3-amino-6-(3-{[(6-chloro-2,3-dihydro-1H-inden-1-yl)amino]methyl}phenyl)-N-methylpyrazine-2-carboxamide]	6.00 to 7.30
CNC(=O)c1nc(-c2cccc(CNC3CCc4c(Cl)cc(Cl)cc43)c2)cnc1N (stereo not drawn) [Example 486, 3-amino-6-(3-{[(4,6-dichloro-2,3-dihydro-1H-inden-1-yl)amino]methyl}phenyl)-N-methylpyrazine-2-carboxamide]	6.00 to 7.30
CNC(=O)c1nc(-c2cccc(CNC3CCc4c(Cl)cccc43)c2)cnc1N (stereo not drawn) [Example 487, 3-amino-6-(3-{[(4-chloro-2,3-dihydro-1H-inden-1-yl)amino]methyl}phenyl)-N-methylpyrazine-2-carboxamide]	> 7.30
CCNC(=O)c1nc(-c2cccc(CN[C@H]3CCc4ccccc43)c2)cnc1N [Example 488, 3-amino-6-(3-{[(1S)-2,3-dihydro-1H-inden-1-ylamino]methyl}phenyl)-N-ethylpyrazine-2-carboxamide]	6.00 to 7.30
CCNC(=O)c1nc(-c2cccc(CNC3CCc4cc(F)cc(F)c43)c2)cnc1N (stereo not drawn) [Example 489, 3-amino-6-(3-{[(5,7-difluoro-2,3-dihydro-1H-inden-1-yl)amino]methyl}phenyl)-N-ethylpyrazine-2-carboxamide]	6.00 to 7.30
CNC(=O)c1nc(-c2cccc(CN[C@H]3CCc4cc(-c5cccs5)ccc43)c2)cnc1N [Example 490, 3-amino-N-methyl-6-[3-({[(1S)-5-(2-thienyl)-2,3-dihydro-1H-inden-1-yl]amino}methyl)phenyl]pyrazine-2-carboxamide]	> 7.30
CNC(=O)c1nc(-c2cccc(CNC3CCc4cc(-c5ccccc5)ccc43)c2)cnc1N (stereo not drawn) [Example 491, 3-amino-N-methyl-6-(3-{[(5-phenyl-2,3-dihydro-1H-inden-1-yl)amino]methyl}phenyl)pyrazine-2-carboxamide]	6.00 to 7.30
CNC(=O)c1nc(-c2cccc(CNC3CCc4c(Br)cccc43)c2)cnc1N (stereo not drawn) [Example 492, 3-amino-6-(3-{[(4-bromo-2,3-dihydro-1H-inden-1-yl)amino]methyl}phenyl)-N-methylpyrazine-2-carboxamide]	> 7.30
CNC(=O)c1nc(-c2cccc(CNC3CCc4c(-c5ccccc5)cccc43)c2)cnc1N (stereo not drawn) [Example 493, 3-amino-N-methyl-6-(3-{[(4-phenyl-2,3-dihydro-1H-inden-1-yl)amino]methyl}phenyl)pyrazine-2-carboxamide]	> 7.30
CNC(=O)c1nc(-c2cccc(CNC3CCc4c(-c5cccs5)cccc43)c2)cnc1N (stereo not drawn) [Example 494, 3-amino-N-methyl-6-[3-({[4-(2-thienyl)-2,3-dihydro-1H-inden-1-yl]amino}methyl)phenyl]pyrazine-2-carboxamide]	> 7.30
CNC(=O)c1nc(-c2cccc(CNC3CCc4ccc(-c5cccs5)cc43)c2)cnc1N (stereo not drawn) [Example 495, 3-amino-N-methyl-6-[3-({[6-(2-thienyl)-2,3-dihydro-1H-inden-1-yl]amino}methyl)phenyl]pyrazine-2-carboxamide]	6.00 to 7.30
CNC(=O)c1nc(-c2cccc(CNC3CCc4cc(-c5cc(C)cs5)ccc43)c2)cnc1N (stereo not drawn) [Example 496, 3-amino-N-methyl-6-[3-({[5-(4-methyl-2-thienyl)-2,3-dihydro-1H-inden-1-yl]amino}methyl)phenyl]pyrazine-2-carboxamide]	> 7.30
CNC(=O)c1nc(-c2cccc(CN[C@@H]3CCc4cc(-c5ccccc5)ccc4C3)c2)cnc1N [Example 497, 3-amino-N-methyl-6-[3-({[(2R)-6-phenyl-1,2,3,4-tetrahydronaphthalen-2-yl]amino}methyl)phenyl]pyrazine-2-carboxamide]	6.00 to 7.30
CNC(=O)c1nc(-c2ccc3ccccc3c2)cnc1N [Example 498, 3-amino-N-methyl-6-naphthalen-2-ylpyrazine-2-carboxamide]	6.00 to 7.30
CNC(=O)c1nc(-c2cccc(CN[C@H]3CCC[C@@H]3OCc3ccccc3)c2)cnc1N [Example 499, 3-amino-N-methyl-6-{3-[({(1S,2S)-2-[(phenylmethyl)oxy]cyclopentyl}amino)methyl]phenyl}pyrazine-2-carboxamide]	6.00 to 7.30
CNC(=O)c1nc(-c2cccc(CNC3CCCC3)c2)cnc1N [Example 500, 3-amino-6-{3-[(cyclopentylamino)methyl]phenyl}-N-methylpyrazine-2-carboxamide]	6.00 to 7.30
CNC(=O)c1nc(-c2cccc(CNC3CCc4ccc(Br)cc43)c2)cnc1N (stereo not drawn) [Example 501, 3-amino-6-(3-{[(6-bromo-2,3-dihydro-1H-inden-1-yl)amino]methyl}phenyl)-N-methylpyrazine-2-carboxamide]	6.00 to 7.30
CNC(=O)c1nc(-c2cccc(CNC3CCc4cccc(F)c43)c2)cnc1N (stereo not drawn) [Example 502, 3-amino-6-(3-{[(7-fluoro-2,3-dihydro-1H-inden-1-yl)amino]methyl}phenyl)-N-methylpyrazine-2-carboxamide]	6.00 to 7.30
CNC(=O)c1nc(-c2cnc3ccccc3c2)cnc1N [Example 503, 3-amino-N-methyl-6-quinolin-3-ylpyrazine-2-carboxamide]	5.00 to 6.00
CNC(=O)c1nc(-c2cccc(Cn3ccnc3)c2)cnc1N [Example 504, 3-amino-6-[3-(1H-imidazol-1-ylmethyl)phenyl]-N-methylpyrazine-2-carboxamide]	6.00 to 7.30
CNC(=O)c1nc(-c2cccc(CNC3CCc4cc(OCCN5CCOCC5)ccc43)c2)cnc1N (stereo not drawn) [Example 505, 3-amino-N-methyl-6-{3-[({5-[(2-morpholin-4-ylethyl)oxy]-2,3-dihydro-1H-inden-1-yl}amino)methyl]phenyl}pyrazine-2-carboxamide]	6.00 to 7.30
CNC(=O)c1nc(-c2cccc(CN[C@@H]3CCC[C@H]3OCc3ccccc3)c2)cnc1N [Example 506, 3-amino-N-methyl-6-{3-[({(1R,2R)-2-[(phenylmethyl)oxy]cyclopentyl}amino)methyl]phenyl}pyrazine-2-carboxamide]	6.00 to 7.30
CNC(=O)c1nc(-c2cccc(CNC3COc4ccccc43)c2)cnc1N (stereo not drawn) [Example 507, 3-amino-6-{3-[(2,3-dihydro-1-benzofuran-3-ylamino)methyl]phenyl}-N-methylpyrazine-2-carboxamide]	6.00 to 7.30
CNC(=O)c1nc(-c2cccc(CNC3CCc4cc(OCC#N)ccc43)c2)cnc1N (stereo not drawn) [Example 508, 3-amino-6-{3-[({5-[(cyanomethyl)oxy]-2,3-dihydro-1H-inden-1-yl}amino)methyl]phenyl}-N-methylpyrazine-2-carboxamide]	6.00 to 7.30
CNC(=O)c1cc(-c2cccc(CN[C@H]3CCc4ccccc43)c2)cnc1N [Example 509, 2-amino-5-(3-{[(1S)-2,3-dihydro-1H-inden-1-ylamino]methyl}phenyl)-N-methylpyridine-3-carboxamide]	6.00 to 7.30
CNC(=O)c1nc(-c2cccc(CNC3CCc4cc(-c5ccc(C)cc5)ccc43)c2)cnc1N (stereo not drawn) [Example 510, 3-amino-N-methyl-6-[3-({[5-(4-methylphenyl)-2,3-dihydro-1H-inden-1-yl]amino}methyl)phenyl]pyrazine-2-carboxamide]	6.00 to 7.30
CNC(=O)c1nc(-c2cccc(CNC(CN(C)C)c3ccccc3)c2)cnc1N (stereo not drawn) [Example 511, 3-amino-6-[3-({[2-(dimethylamino)-1-phenylethyl]amino}methyl)phenyl]-N-methylpyrazine-2-carboxamide]	6.00 to 7.30
